These results are taken from patent US9517240B2, “Methods and compositions for cancer prevention and treatment” (THE REGENTS OF THE UNIVERSITY OF CALIFORNIA, priority 2006, dated 2016).

Test [1] relates to BRCA1^Δ11p53^Δ5&6 conditional knockout mice (mammary tumors). As to the kind of experiment: Pellet implantation and weekly monitoring for mammary tumor formation in BRCA1/p53 deficient mice. Format: in vivo, mouse. The note with it: for mammary tumorigenesis / tumor formation (in words): 35 mg/60 day constant release pellet. As to the method:
(§1) As progesterone is a potent mitogen for BRCA1^Δ11p53^Δ5&6 MECs specifically it was tested whether blocking PR signaling by anti-progesterone will prevent or delay mammary carcinogenesis in BRCA1^Δ11p53^Δ5&6 conditional knockout mice. An anti-progesterone pellet containing 35 mg/60 days constant release mifepristone or placebo pellet was implanted into twelve 3- and two 4-month-old mice. Mice were monitored weekly for tumor formation. The median tumor latency of BRCA1^Δ11p53^Δ5&6 conditional knockout mice was 6.6 months (n=25) with complete penetrance (FIG. 4A). All control mice or placebo pellet treated mice developed palpable tumor by 8.7 or 5.2 months of ages (n=4), respectively. […] The effects of on ductal branching and alveolar expansion were determined using mammary gland whole mounts and histological sections. […] Only 33±7 ducts in an approximate area of 0.012 mm^2 were identified in-treated mice while 678±49 ducts were found in placebo pellet-treated mice. Dramatic inhibition of tumorigenesis was also seen with the implantation of 35 mg time release (60 day) pellets of CDB-2914. […] CDB-2914 shares structural similarity with mifepristone and binds competitively to PR with high affinity.
Nulliparous mature BRCA1^Δ11/p53^Δ5&6 female mice, age 14-20 weeks, were anesthetized and pellets containing either 35 mg/60-day constant release of mifepristone (M8046, Sigma, St. Louis, Mo.) or placebo pellets (Innovative Research of America, Sarasota, Fla.) were implanted in the lateral side of the neck. Mice were monitored weekly for mammary tumors.
This Example describes the early administration of Progesterone Receptor antagonists to mice with a BRCA1 mutation to prevent or delay the development of tumors.
An effective development window for prevention treatment has also been shown for RU-486 (data not shown). I would appear that the time window for treatment is important.

For test [2], the system named is BRCA1^Δ11p53^Δ5&6 mammary glands. The test is described as follows: Immunostaining for cleaved caspase 3 in treated mammary glands. Format: in vivo, mouse. The note with it: 3 wk or 5 wk post pellet implantation.
For test [3] the test system is unchanged. The test is described as follows: Mammary gland whole mounts and histological sections: ductal branching and alveolar expansion. The format is in vivo, mouse. The protocol: as §1
The mammary gland was removed and flattened on paraffin paper and fixed in Carnoy's fixative (60% of absolute ethanol, 30% CHCl3, 10% HOAc) for 3 hr. It was subsequently hydrated through a series of solutions with decreasing concentrations of ethanol, and stained in carmine solution (1 g carmine, 2.5 g aluminum potassium sulfate/500 ml of water) overnight. The gland was dehydrated through a series of solutions with increasing ethanol concentrations, 50-100%, washed in xylene twice, and mounted on a slide.

Test [4] relates to BRCA1^Δ11p53^Δ5&6 conditional knockout mice (mammary tumors). The test is described as follows: Pellet implantation and weekly monitoring for mammary tumor formation in BRCA1/p53 deficient mice. Format: in vivo, mouse. As to conditions: 5 mg/60 days constant release pellet.
A further test concerns the target T1, PR (Homo sapiens, UniProt P06401).
T1 sequence (P06401 1-933): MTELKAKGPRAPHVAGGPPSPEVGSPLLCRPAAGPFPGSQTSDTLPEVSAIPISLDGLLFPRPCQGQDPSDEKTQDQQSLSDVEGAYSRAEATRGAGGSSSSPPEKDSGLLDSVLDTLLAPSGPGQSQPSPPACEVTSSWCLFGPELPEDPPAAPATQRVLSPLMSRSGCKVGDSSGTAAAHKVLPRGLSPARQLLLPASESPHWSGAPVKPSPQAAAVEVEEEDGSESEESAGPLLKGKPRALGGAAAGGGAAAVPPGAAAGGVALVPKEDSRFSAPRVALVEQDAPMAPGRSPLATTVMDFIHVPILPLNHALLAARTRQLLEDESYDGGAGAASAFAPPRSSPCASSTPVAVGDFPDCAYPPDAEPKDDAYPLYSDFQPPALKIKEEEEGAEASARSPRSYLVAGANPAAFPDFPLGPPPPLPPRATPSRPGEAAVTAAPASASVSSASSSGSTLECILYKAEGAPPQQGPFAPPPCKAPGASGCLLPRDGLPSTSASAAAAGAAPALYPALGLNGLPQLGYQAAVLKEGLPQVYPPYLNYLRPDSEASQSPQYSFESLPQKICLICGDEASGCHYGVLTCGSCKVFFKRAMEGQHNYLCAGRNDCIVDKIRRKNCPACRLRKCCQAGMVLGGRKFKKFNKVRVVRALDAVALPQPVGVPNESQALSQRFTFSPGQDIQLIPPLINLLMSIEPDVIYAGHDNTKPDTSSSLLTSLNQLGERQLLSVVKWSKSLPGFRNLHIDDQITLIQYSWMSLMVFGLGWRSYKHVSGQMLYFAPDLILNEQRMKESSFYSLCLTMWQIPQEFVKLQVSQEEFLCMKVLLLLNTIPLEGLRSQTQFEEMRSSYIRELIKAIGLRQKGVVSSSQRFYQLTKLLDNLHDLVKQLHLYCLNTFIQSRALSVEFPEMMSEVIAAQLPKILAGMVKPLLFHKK
The note with it: cited from earlier work.

Test [5] deals with T2, PR-A (Mus musculus, UniProt Q00175).
T2 construct: endogenous in cells; host or cells: primary mouse mammary epithelial cells (MECs) from p53 and BRCA1/p53 conditional knockout mammary glands
T2 sequence (Q00175 1-761 isoform Q00175-2): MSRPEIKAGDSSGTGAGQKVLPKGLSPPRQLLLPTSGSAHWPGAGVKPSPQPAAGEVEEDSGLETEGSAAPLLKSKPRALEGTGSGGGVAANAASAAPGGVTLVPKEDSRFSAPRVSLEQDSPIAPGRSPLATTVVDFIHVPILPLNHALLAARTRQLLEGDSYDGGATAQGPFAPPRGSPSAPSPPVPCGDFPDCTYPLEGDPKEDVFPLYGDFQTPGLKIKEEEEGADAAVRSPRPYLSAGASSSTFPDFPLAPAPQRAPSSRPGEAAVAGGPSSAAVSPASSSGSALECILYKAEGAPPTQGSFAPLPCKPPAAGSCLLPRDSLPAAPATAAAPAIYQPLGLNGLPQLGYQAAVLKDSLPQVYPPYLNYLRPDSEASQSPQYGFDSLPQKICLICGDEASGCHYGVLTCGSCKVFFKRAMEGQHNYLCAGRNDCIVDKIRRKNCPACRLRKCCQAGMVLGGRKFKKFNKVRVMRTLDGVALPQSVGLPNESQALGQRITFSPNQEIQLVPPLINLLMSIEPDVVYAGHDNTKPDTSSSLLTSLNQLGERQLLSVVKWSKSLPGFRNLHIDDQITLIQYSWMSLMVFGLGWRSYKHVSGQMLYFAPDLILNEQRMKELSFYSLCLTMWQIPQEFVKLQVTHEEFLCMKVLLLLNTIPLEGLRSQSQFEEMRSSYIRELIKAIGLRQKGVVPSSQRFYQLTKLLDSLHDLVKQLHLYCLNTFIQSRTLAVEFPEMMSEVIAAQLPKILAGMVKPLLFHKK
The test is described as follows: Determination of PR half-life in MECs with cyclohexamide and R5020. The format is cell-based. The note with it: 10 nM R5020, 100 μg/ml cyclohexamide. The source says:
(§2) MEC cultures from BRCA1^Δ11p53^Δ5&6 and p53^Δ5&6 mammary glands of two-month-old mice when MECs are histologically normal were created. The amount of PR protein, determined by western blotting, was 3-fold higher in BRCA1^Δ11p53^Δ5&6 than in p53^Δ5&6 MECs (FIG. 2D, lanes 1, 3). To further establish that PR protein stability is modulated by a proteasome pathway, MECs were exposing to MG132. PR-A was stabilized in p53^Δ5&6 but not in BRCA1^Δ11p53^Δ5&6 MECs (FIG. 2D, lanes 2, 4).
(§3) One day after plating, proliferating sub-confluent MECs or T47D cells were treated with 10 μM MG132 (BioMol Research Laboratories, Plymouth Meeting, Pa.) for 4 hr. Vehicle DMSO was added to the medium of untreated control cells. For the half-life study, 100 μg/ml of cyclohexamide (Sigma) was used and cells were harvested 0-6 hours after the addition of cyclohexamide. Cells were washed in PBS and protein lysates were prepared as described above.

In test [6] the test system is mammary epithelial cells (MECs). The test is described as follows: Hormone-induced proliferation of mammary epithelial cells in ovariectomized mice (BrdU incorporation). The format is in vivo, mouse. The note with it: 1 mg progesterone daily for 3 days. As to the method: MEC proliferation peaks at the estrous phase when progesterone level is highly elevated. To assess the contribution of steroid hormones to MECs proliferation an ovariectomy was performed to deplete circulating estrogen and progesterone. Since PR is one of the downstream target genes of ER, progesterone activity was targeted. Two weeks after ovariectomy mice were treated with progesterone daily for 3 days followed by BrdU pulse labeling. In control vehicle treated mice, no BrdU-positive MECs were found in ovariectomized wt, and p53^Δ5&6 gland, but ducts containing one or two BrdU-positive cells were detected in BRCA1^Δ11p53^Δ5&6 mammary glands (FIG. 2A). Elevated proliferation seen under ovarian hormone depletion is related to the ligand-independent activation of PR in BRCA1-deficient cells. Importantly, a higher number of BrdU-positive MECs was found in BRCA1^Δ11p53^Δ5&6 mammary glands upon exposure to progesterone; ducts containing up to 6 BrdU-positive cells were identified (FIG. 2A).
Two weeks before steroid hormone treatment animals were bilaterally ovariectomized Mammary glands were stimulated to proliferate with daily subcutaneous injections of either 1 μg of estradiol (E2758, Sigma, St. Louis, Mo.) or 1 mg of progesterone (P8783, Sigma, St. Louis, Mo.) for 3 days. Untreated mice were used as controls.

Test [7] concerns PR-A. As to the kind of experiment: Inhibition of proteasome degradation: PR-A and ERα levels in T47D cells with siLuc or siBRCA1 (western blotting). The format is cell-based, human. As to the method: To further test whether BRCA1 specifically affects PR stability, adenoviral siRNA-mediated knockdown of BRCA1 was introduced to T47D cells. […] In the absence of a ligand, PR-A was very stable and no significant differences were detected between siLuc and siBRCA1 knockdown cells (FIG. 3A, lanes 5, 6). The amount of PR-B was analyzed by immunoprecipitation followed by western blot (FIG. 8). Depletion of BRCA1 by adenoviral siRNA led to PR-A and PR-B accumulation.
as §3
A general note: In western blotting, separated proteins are transferred to a membrane and probed.

Test [8] relates to PR-A. The test is described as follows: Inhibition of proteasome degradation: PR protein level in mouse MECs (western blotting). As to conditions: 10 μM MG132 for 4 hr. The format is cell-based.
Description: as §2, §3

Each structure is given as a SMILES string. Entries after “also recorded” stand apart in the source; their conditions may differ. Peptide text beside a SMILES is read from it. * marks the point of attachment. Cbz = O=C(OCc1ccccc1)*

For the compound `CC#C[C@]1(O)CC[C@H]2[C@@H]3CCC4=CC(=O)CCC4=C3[C@@H](c3ccc(N(C)C)cc3)C[C@@]21C` [mifepristone], the “mammary tumorigenesis / tumor formation (in words)” value in test [1] (BRCA1/p53 deficient mice) is “effective prevention of tumor formation; also recorded: prevents tumorigenesis; also recorded: inhibits mammary tumorigenesis”. Moreover, the “palpable tumors at 12 months of age” value in test [1] (35 mg/60 days constant release pellet implanted at 3-4 months, n=14, BRCA1^Δ11p53^Δ5&6 mice) is given as “no palpable tumors were detected”. Besides, the “apoptotic cells (cleaved caspase 3)” value in test [2] is given as “few apoptotic cells”. Further, in [3] (five weeks of treatment, 35 mg/60-day pellet), the “side branches of mammary glands” value is “substantial reduction”. Further, in test [3] (five weeks of treatment, 35 mg/60-day pellet, placebo 678±49), the “ducts in an approximate area of 0.012 mm^2” value came to 33±7 ducts.

Take `CC(=O)O[C@]1(C(C)=O)CC[C@H]2[C@@H]3CCC4=CC(=O)CCC4=C3[C@@H](c3ccc(N(C)C)cc3)C[C@@]21C` [CDB-2914, 17α-acetoxy-11β-(4-N,N-dimethylaminophenyl)-19-norpregna-4,9-diene-3,20-dione]: the “efficacy in tumor prevention (in words)” value in test [4] was “failed to show any efficacy”. The other receptor properties result on PR was “anti-glucorcorticoid and anti-androgen properties”. The “binding to PR” value at PR (competitive) is “high affinity”. Further, the “inhibition of tumors compared to control implants” value in test [1] (35 mg time release (60 day) pellet, BRCA1/p53 deficient mice, age 14 weeks, n=4) is 100%. In addition, the “mammary tumorigenesis / tumor formation (in words)” value in test [1] (BRCA1/p53 deficient mice) is “has a preventative effect; also recorded: inhibits mammary tumorigenesis; also recorded: effective in delaying mammary tumors”. In addition, the “development of palpable tumors” value in test [1] (two-month-release pellet implanted before 14 weeks of age, n=4) is “delayed development of palpable tumors”; in test [1] (two-month-release pellet placed after 15 wks), “failed to do so”. In addition, the “ductal branching of the mammary gland” value in [3] (Brca1^f/fp53^f/fCrec mouse, 7.0-month-old, 35 mg/60 day pellet at 14-wk-old) is “inhibits ductal branching”.

In the case of `CCC(=O)[C@@]1(C)CC[C@H]2[C@@H]3CCC4=CC(=O)CCC4=C3CC[C@@]21C` [R5020], the “PR-A present at 6 hr post R5020 treatment” value at PR-A [5] (BRCA1^Δ11p53^Δ5&6 MECs) stood at 90%. The “half-life of PR-A” value on PR-A [5] (p53^Δ5&6 MECs) came to 2.8 h.

On to `CC(=O)[C@H]1CC[C@H]2[C@@H]3CCC4=CC(=O)CC[C@]4(C)[C@H]3CC[C@]12C` [progesterone], for which the “BrdU-positive cells per duct” value in [6] (BRCA1^Δ11p53^Δ5&6 mammary glands) was “up to 6”. The “BrdU-positive cells in the majority of MECs” value in test [6] (wt or p53^Δ5&6 mammary gland) is “did not contain BrdU-positive cells”.

With `CC(C)C[C@@H](C=O)NC(=O)[C@H](CC(C)C)NC(=O)[C@H](CC(C)C)NC(=O)OCc1ccccc1` [MG132] (Cbz-Leu-Leu-Leu-aldehyde), the “PR-A density (western blot)” value with PR-A [7] (control siLuc infected cells, with R5020, 1.0 without MG132) stood at 3.8; in the test with PR-A [7] (siBRCA1 infected cells, with R5020, 3.2 without MG132), 3.6. Moreover, the ERα stabilization entry in the test on PR-A [7] (siLuc or siBRCA1 knockdown cells) was “stabilized to a similar extent”. The PR-A stabilization result is recorded as “not” with PR-A [8] (BRCA1^Δ11p53^Δ5&6 MECs) and “stabilized” with PR-A [8] (p53^Δ5&6 MECs).
